pIC50: −log10 of the molar value.

The results in this text go back to patent US11518761B2, “CDPK1 inhibitors, compositions, and methods related thereto” (Vyera Pharmaceuticals, LLC, priority 2017, dated 2022).

Chain of T. gondii CDPK1 (tgCDPK1) (Q9BJF5 1-507): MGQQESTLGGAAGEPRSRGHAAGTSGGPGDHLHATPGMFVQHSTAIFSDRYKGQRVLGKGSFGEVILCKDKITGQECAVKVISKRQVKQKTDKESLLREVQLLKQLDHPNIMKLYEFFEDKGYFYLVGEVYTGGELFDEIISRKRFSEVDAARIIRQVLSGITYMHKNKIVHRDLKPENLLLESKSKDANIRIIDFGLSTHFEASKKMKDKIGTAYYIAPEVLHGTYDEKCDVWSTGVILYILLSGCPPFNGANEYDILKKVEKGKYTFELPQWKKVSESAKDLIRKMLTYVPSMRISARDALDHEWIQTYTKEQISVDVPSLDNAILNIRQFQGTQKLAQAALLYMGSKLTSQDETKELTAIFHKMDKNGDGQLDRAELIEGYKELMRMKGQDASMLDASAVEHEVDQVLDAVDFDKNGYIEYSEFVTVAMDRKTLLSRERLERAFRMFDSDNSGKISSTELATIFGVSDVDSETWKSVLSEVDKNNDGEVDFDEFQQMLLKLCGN

For the assay, the target named is T. gondii CDPK1 (tgCDPK1) (Toxoplasma gondii, UniProt Q9BJF5). Kind of assay: biochemical. The following applies: at least three independent replicates. Here is the method:
Certain of the compounds prepared as described above were assayed to determine their IC50 for inhibition of T. gondii CDPK1 (tgCDPK1). At least three independent replicates of the assay were conducted for each compound tested.
`Nc1ncnc2c1c(Oc1cccc(F)c1)nn2[C@H]1C[C@@H](O)C1` [Compound 153, (cis)-3-(4-ammo-3-(3-fluorophenoxy)-1H-pyrazolo[3,4-d]pyrimidin-1-yl)cyclobutan-1-ol]: the negative-log IC50 (pIC50) was 7.47.

For `Nc1ncnc2c1c(Oc1cccc(Cl)c1)nn2[C@H]1C[C@@H](O)C1` [Compound 152], the pIC50 is 7.56.

`Nc1ncnc2c1c(Oc1cc(Cl)ccn1)nn2[C@H]1C[C@H](F)C1` [Compound 158, 3-[(4-chloropyridin-2-yl)oxy]-1-[(trans)-3-fluorocyclobutyl]-l H-pyrazolo[3,4-d]pyrimidin-4-amine] gave a negative-log IC50 (pIC50) of 7.94. Compared with the last compound, the pIC50 is 0.38 log units higher.

Consider `Nc1ncnc2c1c(Cc1cccc(Cl)c1)nn2[C@H]1C[C@@H](O)C1` [Compound 130, (cis)-3-(4-amino-3-(3-chlorobenzyl)-1H-pyrazolo[3,4-d]pyrimidin-1-yl)cyclobutan-1-ol], for which the pIC50 is 7.81.

In turn, `Nc1ncnc2c1c(Oc1cccc(F)c1)nn2[C@H]1C[C@H](O)C1` [Compound 155, (trans)-3-(4-amino-3-(3-fluorophenoxy)-1H-pyrazolo[3,4-d]pyrimidin-1-yl)cyclobulan-1-ol] showed a negative logarithm of the IC50 (pIC50) of 7.42.

Turning to “(2-((4-amino-1-cyclopropyl-1H-pyrazolo[3,4-d]pyrimidin-3-yl)oxy)pyrimidin-4-yl)methanol [Compound 86]”, the pIC50 was 7.53.

`Nc1ncnc2c1c(Oc1cccc(C(F)(F)F)c1)nn2[C@H]1C[C@H](F)C1` [Compound 166] had a pIC50 of 7.54.

Take `Nc1ncnc2c1c(Cc1cccc(F)c1)nn2[C@H]1C[C@@H](O)C1` [Compound 132]: the pIC50 is 7.55.

For `Nc1ncnc2c1c(Cc1c[nH]c3ccc(F)cc13)nn2[C@H]1C[C@H](O)C1` [Compound 154, (trans)-3-(4-amino-3-((5-fluoro-1H-indol-3-yl)methyl)-1H-pyrazolo[3,4-d]pyrimidin-1-yl)cyclobutan-1-ol], the negative-log IC50 (pIC50) is 7.93. This pIC50 lies 0.38 log units higher than the previous one.

`Nc1ncnc2c1c(Oc1cc(C(F)(F)F)ccn1)nn2C1CC1` [Compound 77, 1-cyclopropyl-3-((4-(trifluoromethyl)pyridin-2-yl)oxy)-1H-pyrazolo[3,4-d]pyrimidin-4-amine] had a pIC50 of 7.78.

One may read the pIC50 as the IC50 on a negative log10 scale, so that one unit is a factor of ten. Read a low pIC50 as a high IC50.
